# Reference: ChEMBL document CHEMBL1201862, “PubChem BioAssay data set” (2004)
# Activity calls are given as the source filed them.
# Assays:
# [1] = target: T1, High affinity choline transporter 1 (Homo sapiens, UniProt Q9GZV3); test: CHT inhibitors, dose response, cell-based, 5-point CRC, membrane potential dye (AID 504840); assay type: functional
# T1 sequence (Q9GZV3 whole entry): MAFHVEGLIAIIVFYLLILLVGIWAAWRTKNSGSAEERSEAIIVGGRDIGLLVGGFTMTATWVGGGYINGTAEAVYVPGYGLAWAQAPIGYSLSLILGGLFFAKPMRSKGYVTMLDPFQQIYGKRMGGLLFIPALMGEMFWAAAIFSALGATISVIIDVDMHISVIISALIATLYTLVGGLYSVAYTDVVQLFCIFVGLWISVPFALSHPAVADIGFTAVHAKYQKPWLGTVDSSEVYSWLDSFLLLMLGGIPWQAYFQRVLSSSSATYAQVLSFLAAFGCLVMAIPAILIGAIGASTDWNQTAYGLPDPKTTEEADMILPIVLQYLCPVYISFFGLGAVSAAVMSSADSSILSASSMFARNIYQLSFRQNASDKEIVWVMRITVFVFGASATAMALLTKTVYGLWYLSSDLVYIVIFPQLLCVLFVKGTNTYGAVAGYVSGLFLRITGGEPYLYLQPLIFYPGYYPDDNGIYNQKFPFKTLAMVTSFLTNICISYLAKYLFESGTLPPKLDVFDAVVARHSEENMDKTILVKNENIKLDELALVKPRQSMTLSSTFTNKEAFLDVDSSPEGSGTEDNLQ
# [2] = target: T1, High affinity choline transporter 1; test: CHT inhibitors, dose response, cell-based, 10-point CRC, membrane potential dye (AID 588401); assay type: functional;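 further: membrane potential dye fluorescence of choline-evoked depolarization via CHT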
# [3] = inhibitors of firefly luciferase expression or activity, dose response, H4 neuroglioma cells, luminescence (AID 1990); assay type: functional, cell-based
# [4] = A Cell Based Secondary Assay To Explore Cytotoxicity of Compounds that Sensitize Mycobacterium Tuberculosis to Beta-Lactam Antibiotics.; assay type: functional
# [5] = Luminescence Cell-Based Dose Response HTS to Identify Inhibitors of 5'UTR Stem-Loop Driven Prion Protein mRNA Translation in H4 Neuroglioblastoma Cells. [Related pubchem assays: 1827 (Project Summary), 1813 (Primary HTS)]; assay type: functional
# [6] = inhibitors of SNCA 5'UTR-driven reporter translation, confirmation, H4 neuroglioma cells, luminescence (AID 1988); assay type: functional, cell-based
# [7] = system: Jurkat; test: antigen receptor-induced NF-kB inhibitors, dose response, Jurkat, luciferase reporter, luminescence, B- and T-cell (AID 489004); assay type: functional, cell-based; conditions: Homo sapiens;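 further: NF-kB luciferase reporter Jurkat cells stimulated with PMA plus ionomycin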
# [8] = cytotoxicity in HEK-293T NF-kB-Luc cells, dose response, cytotoxicity control for B/T-cell NF-kB inhibitor project, cell-based, uHTS hits (AID 489019); assay type: functional;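 further: IC50 reflects cytotoxicity as loss of cell viability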
# [9] = system: HEK293; test: inhibitors of LMP1-driven NF-kB reporter, dose response, cell-based, HEK293, luciferase, cherry-pick (AID 588343); assay type: functional; conditions: Homo sapiens
# [10] = HEK293T cell cytotoxicity, dose response, cytotoxicity control for HIV Vif inhibitor project, cherry-picks (AID 652208); assay type: functional, cell-based
# [11] = system: Vero; test: Vero cell cytotoxicity, cytotoxicity control for flavivirus capping enzyme inhibitors (AID 588742); assay type: functional; conditions: Chlorocebus sabaeus
# [12] = target: Keap1/Nrf2 (Homo sapiens, UniProt Q14145); test: Keap1-Nrf2 protein-protein interaction inhibitors, dose response, biochemical, fluorescence polarization, cherry-picked samples (AID 588683)
# [13] = target: Genome polyprotein (dengue virus type 2, UniProt P29990); test: Dengue-2 NS5 methyltransferase inhibitors, primary screen, biochemical, confirmation dose response (AID 588689); assay type: functional
# [14] = target: T2, Polyadenylate-binding protein 1 (Homo sapiens, UniProt P11940); test: PABP1 MLLE–PAM2 interaction inhibitors, dose response, miRNA deadenylation inhibitor project, biochemical, fluorescence polarization, Cy5-PAM2 peptide, secondary (AID 602260); assay type: functional; conditions: read-out: IC50_Mean
# [15] = target: T2, Polyadenylate-binding protein 1; test: PABP1 MLLE–PAM2 binding inhibitor potency, dose response, biochemical, fluorescence polarization, FITC-PAM2 peptide (AID 602259); assay type: functional; conditions: read-out: IC50_Mean
# [16] = HeLa cell cytotoxicity, dose response, cytotoxicity control for MgcRacGAP inhibitor project (AID 624300); assay type: functional
# [17] = target: Albumin (Bos taurus, UniProt P02769); test: Counterscreen for inhibitors of T-cell receptor (TCR)-CD3 interaction: Fluorescence-based biochemical high throughput dose response assay to identify inhibitors of T-cell receptor (TCR)-CD3 interaction using a TAMRA-labeled BSA probe.; assay type: functional
# [18] = target: T3, Histone-lysine N-methyltransferase NSD2 (Homo sapiens, UniProt O96028); assay type: biochemical
# T3 sequence (O96028 whole entry): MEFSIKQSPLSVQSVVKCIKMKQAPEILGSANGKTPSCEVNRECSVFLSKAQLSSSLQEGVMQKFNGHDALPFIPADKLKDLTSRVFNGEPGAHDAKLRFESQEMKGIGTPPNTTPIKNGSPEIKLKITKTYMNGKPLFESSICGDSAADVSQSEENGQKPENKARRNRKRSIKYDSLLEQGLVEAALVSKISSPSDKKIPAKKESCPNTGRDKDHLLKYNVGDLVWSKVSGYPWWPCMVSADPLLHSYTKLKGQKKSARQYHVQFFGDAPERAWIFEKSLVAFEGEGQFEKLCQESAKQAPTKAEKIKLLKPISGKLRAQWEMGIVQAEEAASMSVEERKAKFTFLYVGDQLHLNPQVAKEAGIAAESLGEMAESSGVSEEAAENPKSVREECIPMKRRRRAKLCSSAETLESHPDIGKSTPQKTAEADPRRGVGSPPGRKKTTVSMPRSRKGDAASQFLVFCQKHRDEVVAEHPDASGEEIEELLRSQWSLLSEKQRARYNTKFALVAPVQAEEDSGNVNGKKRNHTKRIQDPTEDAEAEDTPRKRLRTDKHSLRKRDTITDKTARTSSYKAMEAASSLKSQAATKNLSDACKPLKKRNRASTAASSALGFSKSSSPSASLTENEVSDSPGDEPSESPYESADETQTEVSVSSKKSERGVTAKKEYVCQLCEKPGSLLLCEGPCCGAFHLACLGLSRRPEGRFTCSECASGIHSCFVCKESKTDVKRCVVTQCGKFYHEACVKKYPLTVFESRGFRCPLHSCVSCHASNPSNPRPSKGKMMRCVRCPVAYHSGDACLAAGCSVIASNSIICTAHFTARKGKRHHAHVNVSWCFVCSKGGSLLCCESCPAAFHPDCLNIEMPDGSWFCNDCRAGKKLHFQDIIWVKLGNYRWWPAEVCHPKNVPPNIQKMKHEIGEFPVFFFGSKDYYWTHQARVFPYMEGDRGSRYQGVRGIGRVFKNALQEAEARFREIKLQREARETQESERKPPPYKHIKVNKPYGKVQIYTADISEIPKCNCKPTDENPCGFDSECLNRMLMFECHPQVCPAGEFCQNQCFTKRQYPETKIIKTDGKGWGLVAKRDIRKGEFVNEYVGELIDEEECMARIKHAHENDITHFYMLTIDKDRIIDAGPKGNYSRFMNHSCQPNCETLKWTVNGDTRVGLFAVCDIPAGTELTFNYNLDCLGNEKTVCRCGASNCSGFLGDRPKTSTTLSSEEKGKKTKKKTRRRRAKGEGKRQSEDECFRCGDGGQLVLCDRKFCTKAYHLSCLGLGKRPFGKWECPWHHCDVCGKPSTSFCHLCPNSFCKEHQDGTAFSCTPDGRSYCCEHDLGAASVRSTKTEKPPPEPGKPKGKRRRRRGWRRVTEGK
# [19] = target: T4, Hexokinase-1 (Homo sapiens, UniProt P19367); test: SAR analysis of small molecule inhibitors of hexokinase domain containing I (HKDC1) in the hexokinase 1 selectivity assay. [Related pubchem assays (depositor defined):AID493160, AID493190]; assay type: functional
# T4 sequence (P19367 whole entry): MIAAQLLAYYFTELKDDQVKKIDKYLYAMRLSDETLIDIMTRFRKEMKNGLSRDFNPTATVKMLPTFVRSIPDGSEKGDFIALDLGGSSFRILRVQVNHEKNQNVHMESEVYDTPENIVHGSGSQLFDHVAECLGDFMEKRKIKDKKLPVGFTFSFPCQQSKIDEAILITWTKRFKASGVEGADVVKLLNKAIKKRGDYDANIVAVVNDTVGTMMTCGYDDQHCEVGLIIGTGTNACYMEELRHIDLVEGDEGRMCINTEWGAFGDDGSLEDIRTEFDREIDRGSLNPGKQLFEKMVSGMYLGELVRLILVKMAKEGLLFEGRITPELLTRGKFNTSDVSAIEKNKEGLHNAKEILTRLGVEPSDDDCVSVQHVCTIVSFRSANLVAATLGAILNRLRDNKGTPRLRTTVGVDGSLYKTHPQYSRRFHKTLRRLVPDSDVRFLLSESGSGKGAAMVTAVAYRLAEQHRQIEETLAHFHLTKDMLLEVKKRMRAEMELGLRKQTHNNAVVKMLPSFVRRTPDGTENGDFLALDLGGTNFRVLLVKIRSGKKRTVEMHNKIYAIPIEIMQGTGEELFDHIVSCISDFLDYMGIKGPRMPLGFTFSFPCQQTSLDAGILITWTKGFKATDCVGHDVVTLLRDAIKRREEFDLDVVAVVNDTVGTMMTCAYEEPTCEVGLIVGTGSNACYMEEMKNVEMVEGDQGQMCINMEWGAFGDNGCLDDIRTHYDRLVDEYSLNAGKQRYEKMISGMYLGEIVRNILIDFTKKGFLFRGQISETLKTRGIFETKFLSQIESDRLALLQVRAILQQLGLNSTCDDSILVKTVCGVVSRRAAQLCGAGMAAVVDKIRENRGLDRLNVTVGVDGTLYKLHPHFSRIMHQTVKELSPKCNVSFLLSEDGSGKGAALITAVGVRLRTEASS
# [20] = target: T5, Hexokinase HKDC1 (Homo sapiens, UniProt Q2TB90); test: SAR analysis of small molecule inhibitors of hexokinase domain containing I (HKDC1). [Related pubchem assays (depositor defined):AID493160, AID493190]; assay type: functional
# T5 sequence (Q2TB90 whole entry): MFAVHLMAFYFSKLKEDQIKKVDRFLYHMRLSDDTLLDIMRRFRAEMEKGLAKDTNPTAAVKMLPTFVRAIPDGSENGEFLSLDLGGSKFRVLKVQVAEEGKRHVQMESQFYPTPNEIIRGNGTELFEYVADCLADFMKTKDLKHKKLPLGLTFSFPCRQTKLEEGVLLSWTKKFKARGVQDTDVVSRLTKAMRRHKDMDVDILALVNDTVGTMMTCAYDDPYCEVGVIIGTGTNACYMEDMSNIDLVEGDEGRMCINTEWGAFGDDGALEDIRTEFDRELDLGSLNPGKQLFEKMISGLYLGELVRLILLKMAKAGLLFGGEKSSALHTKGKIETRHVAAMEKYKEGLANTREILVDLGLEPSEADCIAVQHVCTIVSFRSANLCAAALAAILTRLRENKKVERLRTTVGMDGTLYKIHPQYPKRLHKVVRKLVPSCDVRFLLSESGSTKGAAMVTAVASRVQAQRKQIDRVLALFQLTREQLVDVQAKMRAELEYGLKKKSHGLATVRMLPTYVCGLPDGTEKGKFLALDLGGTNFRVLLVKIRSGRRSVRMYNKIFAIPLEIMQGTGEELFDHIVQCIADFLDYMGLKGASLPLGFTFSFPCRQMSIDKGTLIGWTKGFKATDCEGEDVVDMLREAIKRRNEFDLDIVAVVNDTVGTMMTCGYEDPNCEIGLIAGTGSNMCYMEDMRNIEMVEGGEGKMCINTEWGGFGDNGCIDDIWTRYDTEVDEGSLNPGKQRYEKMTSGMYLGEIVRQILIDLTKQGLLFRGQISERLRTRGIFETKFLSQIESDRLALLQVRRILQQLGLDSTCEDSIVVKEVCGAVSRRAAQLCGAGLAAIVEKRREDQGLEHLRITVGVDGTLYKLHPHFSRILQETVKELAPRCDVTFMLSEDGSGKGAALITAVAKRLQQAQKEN
# T2 sequence (P11940 whole entry): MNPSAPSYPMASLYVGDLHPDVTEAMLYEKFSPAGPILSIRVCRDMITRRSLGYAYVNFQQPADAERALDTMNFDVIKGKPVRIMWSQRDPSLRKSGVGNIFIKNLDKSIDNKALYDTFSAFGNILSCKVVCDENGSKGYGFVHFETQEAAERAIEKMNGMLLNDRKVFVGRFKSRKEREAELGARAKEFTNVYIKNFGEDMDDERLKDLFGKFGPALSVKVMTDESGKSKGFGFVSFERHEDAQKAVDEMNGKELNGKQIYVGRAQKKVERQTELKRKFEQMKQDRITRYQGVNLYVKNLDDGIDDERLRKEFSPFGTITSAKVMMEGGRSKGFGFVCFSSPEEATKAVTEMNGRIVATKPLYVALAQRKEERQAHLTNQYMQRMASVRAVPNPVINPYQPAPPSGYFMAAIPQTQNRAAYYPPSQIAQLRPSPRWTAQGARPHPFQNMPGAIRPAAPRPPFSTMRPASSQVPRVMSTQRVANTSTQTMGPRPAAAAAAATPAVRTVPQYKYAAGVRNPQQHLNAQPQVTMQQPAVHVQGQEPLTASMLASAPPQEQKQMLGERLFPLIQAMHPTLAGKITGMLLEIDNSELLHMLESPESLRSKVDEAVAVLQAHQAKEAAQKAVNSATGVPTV
# Sequence of Keap1/Nrf2 (Q16236 whole entry): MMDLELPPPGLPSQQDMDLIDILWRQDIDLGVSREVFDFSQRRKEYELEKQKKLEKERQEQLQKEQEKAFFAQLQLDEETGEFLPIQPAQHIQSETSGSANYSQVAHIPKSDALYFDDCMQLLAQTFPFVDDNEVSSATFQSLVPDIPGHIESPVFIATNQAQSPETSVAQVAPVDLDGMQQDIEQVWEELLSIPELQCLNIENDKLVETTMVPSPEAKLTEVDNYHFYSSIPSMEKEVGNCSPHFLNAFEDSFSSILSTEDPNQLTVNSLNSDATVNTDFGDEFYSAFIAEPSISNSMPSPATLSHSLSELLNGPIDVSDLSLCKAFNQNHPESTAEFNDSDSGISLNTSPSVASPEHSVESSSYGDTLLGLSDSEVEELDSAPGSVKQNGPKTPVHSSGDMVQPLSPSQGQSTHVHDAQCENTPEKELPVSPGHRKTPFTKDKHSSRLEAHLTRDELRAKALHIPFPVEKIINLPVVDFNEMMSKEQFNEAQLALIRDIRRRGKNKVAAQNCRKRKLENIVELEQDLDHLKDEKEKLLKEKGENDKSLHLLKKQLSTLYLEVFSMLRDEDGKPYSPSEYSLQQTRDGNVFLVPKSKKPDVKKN
# Sequence of Keap1/Nrf2 (Q14145 whole entry): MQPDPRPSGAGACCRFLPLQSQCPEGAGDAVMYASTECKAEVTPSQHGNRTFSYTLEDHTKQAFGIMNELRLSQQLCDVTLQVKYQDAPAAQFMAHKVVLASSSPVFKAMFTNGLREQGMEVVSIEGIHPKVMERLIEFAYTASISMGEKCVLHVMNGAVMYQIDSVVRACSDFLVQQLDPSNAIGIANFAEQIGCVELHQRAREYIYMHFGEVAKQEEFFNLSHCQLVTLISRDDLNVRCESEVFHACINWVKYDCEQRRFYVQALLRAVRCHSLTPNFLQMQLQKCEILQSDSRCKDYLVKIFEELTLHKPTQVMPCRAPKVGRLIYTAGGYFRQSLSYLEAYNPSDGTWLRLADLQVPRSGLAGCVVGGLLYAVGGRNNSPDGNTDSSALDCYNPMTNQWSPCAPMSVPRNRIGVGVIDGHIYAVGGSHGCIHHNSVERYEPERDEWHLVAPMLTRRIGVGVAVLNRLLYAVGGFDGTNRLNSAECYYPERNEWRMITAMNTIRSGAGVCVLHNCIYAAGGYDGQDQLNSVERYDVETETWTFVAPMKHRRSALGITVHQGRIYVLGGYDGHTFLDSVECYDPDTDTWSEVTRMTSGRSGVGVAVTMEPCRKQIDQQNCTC
# Sequence of Genome polyprotein (P29990 2492-3391 limits assumed): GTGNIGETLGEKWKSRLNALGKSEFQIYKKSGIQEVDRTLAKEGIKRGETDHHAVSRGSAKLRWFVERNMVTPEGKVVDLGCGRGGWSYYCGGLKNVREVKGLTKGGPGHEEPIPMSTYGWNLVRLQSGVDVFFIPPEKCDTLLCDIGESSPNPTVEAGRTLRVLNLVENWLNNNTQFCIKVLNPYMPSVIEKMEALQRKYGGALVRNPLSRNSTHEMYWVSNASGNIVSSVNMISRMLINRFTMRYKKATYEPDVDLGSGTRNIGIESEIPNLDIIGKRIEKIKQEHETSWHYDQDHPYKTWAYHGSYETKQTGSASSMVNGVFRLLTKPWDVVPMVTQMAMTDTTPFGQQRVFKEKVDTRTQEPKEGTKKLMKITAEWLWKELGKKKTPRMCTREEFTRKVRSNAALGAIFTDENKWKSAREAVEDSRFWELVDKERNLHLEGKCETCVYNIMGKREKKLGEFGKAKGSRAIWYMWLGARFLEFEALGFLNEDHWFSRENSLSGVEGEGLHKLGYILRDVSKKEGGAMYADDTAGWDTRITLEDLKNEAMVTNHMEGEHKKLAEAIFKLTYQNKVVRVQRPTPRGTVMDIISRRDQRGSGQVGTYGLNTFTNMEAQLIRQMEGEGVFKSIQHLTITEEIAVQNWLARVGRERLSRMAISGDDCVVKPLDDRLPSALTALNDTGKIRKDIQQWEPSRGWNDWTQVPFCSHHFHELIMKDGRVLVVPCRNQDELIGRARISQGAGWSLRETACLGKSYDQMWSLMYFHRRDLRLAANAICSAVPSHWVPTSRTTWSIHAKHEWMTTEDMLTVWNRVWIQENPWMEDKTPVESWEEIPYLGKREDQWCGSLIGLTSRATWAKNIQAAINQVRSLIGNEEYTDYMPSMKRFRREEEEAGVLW
# Sequence of Albumin (P02769 whole entry): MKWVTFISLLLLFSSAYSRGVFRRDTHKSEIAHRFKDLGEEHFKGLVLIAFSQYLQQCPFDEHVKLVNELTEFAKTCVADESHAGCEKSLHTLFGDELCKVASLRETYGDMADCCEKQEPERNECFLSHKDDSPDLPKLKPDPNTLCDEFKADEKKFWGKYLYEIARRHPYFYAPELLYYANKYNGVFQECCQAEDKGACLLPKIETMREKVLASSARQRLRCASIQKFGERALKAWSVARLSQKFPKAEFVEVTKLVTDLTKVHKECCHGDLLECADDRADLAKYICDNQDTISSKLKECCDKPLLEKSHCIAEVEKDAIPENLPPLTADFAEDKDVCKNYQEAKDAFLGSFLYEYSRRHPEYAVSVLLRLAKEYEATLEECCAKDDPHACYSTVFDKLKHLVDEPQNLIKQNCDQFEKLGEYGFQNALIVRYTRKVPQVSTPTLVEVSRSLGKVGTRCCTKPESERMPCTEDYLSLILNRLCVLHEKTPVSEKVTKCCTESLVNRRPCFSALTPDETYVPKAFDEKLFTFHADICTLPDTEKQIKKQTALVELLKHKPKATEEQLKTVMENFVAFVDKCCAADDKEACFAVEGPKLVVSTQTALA
compound,measurement,setting,value
CC1=NOC(=O)/C1=C/c1ccc(O)c(Cl)c1,IC50,[1],6.99 µM (active)
same,IC50,[2],3.57 µM (active)
CCc1cc2c(Sc3nc4ccccc4s3)ncnc2s1,EC50,[3],> 120 µM (not active)
same,CC50,[4],30.2 µM (active)
same,EC50,[5],16.3 µM (active)
same,EC50,[6],3.87 µM (active)
same,IC50,[7],< 0.16 µM (active)
same,IC50,[8],> 80 µM (inactive)
same,AC50,[9],4.9 µM (active)
same,AC50,[10],> 52 µM (inactive)
O=C1C(Cl)=C(N2CCN(CCO)CC2)C(=O)c2c(O)ccc(O)c21,CC50,[11],2.85 µM (active)
same,AC50,[12],> 52 µM (inactive)
same,IC50,[13],4.58 µM (active)
same,IC50,[14],> 66 µM (inactive)
same,IC50,[15],60.6 µM (inactive)
same,CC50,[16],12.9 µM (active)
same,IC50,[17],29.1 µM (inactive)
same,AC50,[18],4.44 µM (active)
COc1ccc(Cn2c(/C=C/c3cccnc3)nc3ccccc3c2=O)cc1,IC50,[19],> 80 µM (inactive)
same,IC50,[20],> 80 µM (inactive)
O=C(Nc1cccc(C(F)(F)F)c1)c1cccc(NC(=O)c2ccccn2)c1,IC50,[19],> 80 µM (inactive)
same,IC50,[20],> 80 µM (inactive)
O=c1c2ccccc2nc(/C=C/c2ccc(F)cc2)n1Cc1ccccc1,IC50,[19],> 80 µM (inactive)
same,IC50,[20],> 80 µM (inactive)
